Test results reported in publication PMC6872757 (Heliyon, 2019).

Assays:
Test in all cases: TR-FRET nuclear receptor binding assay
[1] = molecular target: T1, PPARα (Homo sapiens, UniProt Q07869)
T1 sequence (Q07869 1-468): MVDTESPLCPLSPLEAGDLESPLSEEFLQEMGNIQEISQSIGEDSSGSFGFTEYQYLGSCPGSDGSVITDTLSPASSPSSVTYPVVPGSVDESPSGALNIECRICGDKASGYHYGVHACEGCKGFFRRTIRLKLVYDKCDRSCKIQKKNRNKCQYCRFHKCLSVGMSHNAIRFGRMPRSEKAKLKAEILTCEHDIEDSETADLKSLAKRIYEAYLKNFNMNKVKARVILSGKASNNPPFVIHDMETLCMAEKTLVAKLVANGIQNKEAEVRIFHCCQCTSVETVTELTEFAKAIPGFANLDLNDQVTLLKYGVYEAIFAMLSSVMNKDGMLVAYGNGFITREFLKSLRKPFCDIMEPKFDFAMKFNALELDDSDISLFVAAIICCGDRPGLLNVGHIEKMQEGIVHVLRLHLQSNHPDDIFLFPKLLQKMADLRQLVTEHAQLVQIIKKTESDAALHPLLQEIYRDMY

[2] = molecular target: T2, PPARδ(β) (Homo sapiens, UniProt Q03181)
T2 sequence (Q03181 1-441): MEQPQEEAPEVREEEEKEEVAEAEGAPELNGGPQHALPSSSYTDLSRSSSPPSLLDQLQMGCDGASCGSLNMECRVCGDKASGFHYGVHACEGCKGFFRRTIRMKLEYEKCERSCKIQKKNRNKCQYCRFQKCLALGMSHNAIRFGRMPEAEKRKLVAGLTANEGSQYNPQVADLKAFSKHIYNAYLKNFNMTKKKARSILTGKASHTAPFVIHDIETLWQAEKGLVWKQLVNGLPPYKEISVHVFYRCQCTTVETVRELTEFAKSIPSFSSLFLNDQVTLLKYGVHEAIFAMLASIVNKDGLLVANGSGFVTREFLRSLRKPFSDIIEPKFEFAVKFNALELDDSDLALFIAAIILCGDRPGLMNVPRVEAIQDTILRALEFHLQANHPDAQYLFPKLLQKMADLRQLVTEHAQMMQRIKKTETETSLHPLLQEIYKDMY

[3] = molecular target: T3, PPARγ (Homo sapiens, UniProt P37231)
T3 sequence (P37231 1-505): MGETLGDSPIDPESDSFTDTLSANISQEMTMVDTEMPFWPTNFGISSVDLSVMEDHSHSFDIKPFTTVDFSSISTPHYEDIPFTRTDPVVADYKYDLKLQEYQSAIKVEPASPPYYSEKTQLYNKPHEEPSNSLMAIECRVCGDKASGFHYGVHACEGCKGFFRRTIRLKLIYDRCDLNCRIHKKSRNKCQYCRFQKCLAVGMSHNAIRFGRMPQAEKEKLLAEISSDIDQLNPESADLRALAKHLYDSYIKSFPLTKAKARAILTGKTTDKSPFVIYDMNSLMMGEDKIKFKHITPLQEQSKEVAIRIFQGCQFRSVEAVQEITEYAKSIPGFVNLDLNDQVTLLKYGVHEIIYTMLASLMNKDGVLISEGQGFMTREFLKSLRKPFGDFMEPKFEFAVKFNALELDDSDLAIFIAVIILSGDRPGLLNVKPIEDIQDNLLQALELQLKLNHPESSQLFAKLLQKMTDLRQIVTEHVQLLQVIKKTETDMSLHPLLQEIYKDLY

CC1=C(/C=C/C(C)=C\C=C\C(C)=C\C(=O)O)C(C)(C)CCC1 [9-cis RA]
No binding: EC50 nuclear receptor binding PPARα [1] | EC50 nuclear receptor binding PPARδ(β) [2] | EC50 nuclear receptor binding PPARγ [3]

CC1=C(/C=C/C(C)=C/C=C/C(C)=C/C(=O)O)C(C)(C)CCC1 [ATRA, all-trans retinoic acid]
No binding: EC50 nuclear receptor binding PPARα [1] | EC50 nuclear receptor binding PPARδ(β) [2] | EC50 nuclear receptor binding PPARγ [3]
